Data on ten compounds can be found in patent publication US5242945A, “Tetronic and thiotetronic acid derivatives as phospholipase A2 inhibitors” (American Home Products Corporation, priority 1991, dated 1993).

Where two headings read alike, the source gives them in different places.

The test system of experiment [1] is purified PLA2, from the diamond back cotton mouth snake (A. piscivorus piscivorus). In words: in vivo PLA2 murine paw edema assay. More on the design: species or system A. piscivorus piscivorus PLA2 in CD-1 mice. Conditions: p.o.; at +10 min. How it is done:
The ability of the compounds of the invention to inhibit paw edema induced by the exogenous administration of PLA2 is measured in the in vivo PLA2 murine paw edema assay.
Non-fasted, male CD-1 mice (8 weeks old; 31-36 grams) are placed in plastic boxes in groups of six. The right hind paw volume is measured using mercury plethysmography (zero time). Compounds are dosed orally (0.5 mL of 0.5% Tween-80) 1 or 3 hours prior to PLA2 injection or intravenously (0.2 mL in 0.3% dimethylsulfoxide/saline) 3 minutes prior to PLA2 injection. A solution of purified PLA2, from the diamond back cotton mouth snake (A. piscivorus piscivorus) is prepared in saline at a concentration of 6 μg/mL. Fifty (50) μL (0.3 μg) of this PLA2 solution is injected subcutaneously into the right hind paw with a plastic 1 mL plastic syringe (27 gauge, 1" needle). Paw volume of the injected paw is measured again at 10 minutes, 30 minutes and 60 minutes after PLA2 injection. Animals are euthanized with CO2 at the completion of the study.
The paw edema is calculated by subtracting the zero time volume from the volume recorded at each time period. Mean paw edema for each treatment group is then calculated and expressed as (μL±S.E.). Drug effects are expressed as a percent change from control (vehicle) values. Statistical significance is determined by a one-way analysis of variance with LSD comparison to control (p<0.05). ED50 's are determined using […].

Experiment [2] relates to lipoxygenase (LTB4 or 5HETE synthesis). In words: inhibition of LTB4 and 5-HETE synthesis by rat glycogen-elicited polymorphonuclear leukocytes. Particulars: Leukocyte, rat PMN; for inhibition at 10 µM: + with * denotes potentiation. The experiment is classed as cell-based, rat (female Wistar). An excerpt:
This is especially true with respect to 5,12-diHETE, which is also denoted as LTB4 [see Ford-Hitchinson, J. Roy. Soc. Med., 74, 831 (1981)]. Compounds which inhibit the PLA2 -mediated release of arachidonic acid thereby effectively prevent the oxidation of arachidonic acid to the various leukotriene products via the lipoxygenase cascade. Accordingly, the specificity of action of PLA2 inhibitors can be determined by the activity of test compounds in this assay, which measures the ability of compounds to inhibit the synthesis of LTB4 and 5-HETE by rat glycogen-elicited polymorphonuclear leukocytes (PMN) in the presence of exogenous substrate.
(§1) Rat polymorphonuclear leukocytes (PMNs) are obtained from female Wistar rats (150-200 g) which receive an injection of 6% glycogen (10 ml i.p.). Rats are sacrificed 18-24 hours post injection by CO2 asphyxiation and the elicited cells are harvested by peritoneal lavage using physiological saline (0.9% NaCl). The exudate is centrifuged at 400 xg for 10 minutes. The supernatant fluid is discarded and the cell pellet is resuspended to a concentration of 2.0×10^7 cells/mL in HBSS containing Ca^++ and Mg^++ and 10 μM L-cysteine.
(§2) To 1 mL aliquots of cell suspension, test drugs or vehicle are added, then preincubated at 37° C. for 10 minutes. A23187 (1 μM), [^3 H]-AA (3.0 μCi/mL) and unlabeled AA (1 μM) are then added and the samples are further incubated for 10 minutes. The reaction is terminated by centrifugation and pelleting cells. Supernatants are then analyzed by HPLC analysis on a 15 cm×4.6 mm ID supelcosil LC-18 (Supelco)(3M) column, using a two solvent system at a flow rate of 1.4 mL total flow as follows:
Injections: 140 μL of each supernatant is injected directly onto column and ^3 H arachidonic acid metabolites are monitored using an on-line radioactivity detector (Ramona, IN/US, Fairfield, N.J.).
Co-chromatography with standard [^3 H] leukotriene B4 (LTB4) in medium of stimulated PMN exposed to drug is compared to that found in medium of stimulated cells exposed to no drug, generating percent inhibition.
Results are expressed as percent inhibition at a given compound dose or as an IC50 value.

Experiment [3] concerns cyclooxygenase (PGE2 or TxB2 synthesis). In words: inhibition of synthesis of cyclooxygenase products PGE2 and TxB2 by rat polymorphonuclear leukocytes. Particulars: Leukocyte, rat PMN; for inhibition at 10 µM: + with * denotes potentiation. The experiment is classed as cell-based, rat (female Wistar). As for the experimental part: as §1, §2
In this assay, the procedure of Example 58 is carried out as described. However, in order to determine cyclooxygenase activity, the samples are co-chromatographed with authentic reference [^3 H]-TxB2 or [^3 H]-PGE2.
The results are calculated as in Example 58 and presented below: […]

Experiment [4] addresses T1, human platelet PLA2 (Homo sapiens, UniProt P14555).
T1 construct: platelet acid extract PLA2; from tissue; host or cells: human platelets, semipurified acid extract
T1 sequence (P14555 21-144): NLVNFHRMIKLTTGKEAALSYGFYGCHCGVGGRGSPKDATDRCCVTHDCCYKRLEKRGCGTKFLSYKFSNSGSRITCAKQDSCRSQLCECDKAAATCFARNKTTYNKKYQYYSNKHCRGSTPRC
Kind of experiment: in vitro isolated phospholipase A2 assay, human platelet PLA2. The experiment is classed as biochemical. Conditions: at 10 μM; + values given without explanation; read-out: % Inhibition HP (human platelet). How it is done:
(§3) The compounds of the invention are tested in an in vitro isolated phospholipase A2 assay to determine the ability of the test compounds to inhibit the release of arachidonic acid from an arachidonic acid-containing substrate by the action of phospholipase A2 enzyme from human and non-human sources.
(§4) Into a 15 mL polypropylene tube are added the following:
(§5) ^3 H-AA E. coli substrate^1
(§6) Tris-HCl (0.5 M) pH 7.5^3
(§7) PLA2 25 Volume yielding 12%
(§8) 100 hydrolysis in 10 min.
(§9) *pre-incubate at room temperature 30 min prior to substrate addition.
(§10) ^6 Two human PLA2 enzymes are used: a) Semipurified human
(§11) platelet acid extract PLA2 (in 10 mM sodium acetate buffer, pH 4.5).
(§12) Remove protein precipitate by centrifugation at about 2200 rpm for 10
(§13) minutes. b) Purified human synovial fluid.
(§14) Incubate the 100 μL reaction mixture for 10 minutes at 37° C. in a shaking water bath. The reaction is terminated by the addition of 2 mL tetrahydrofuran, followed by vortexing. NH2 columns (100 μg/mL--Analytichem International) are conditioned with 0.5 mL tetrahydrofuran followed by 0.5 mL tetrahydrofuran/water (2 mL:0.1 mL, v/v).
(§15) The sample is loaded onto the columns and slowly drawn through them. The hydrolyzed arachidonic acid retained in the columns is eluted therefrom with 1 mL tetrahydrofuran/glacial acetic acid (2%). The arachidonic acid is transferred to scintillation vials and quantitated by β-counting analysis. A "total counts" sample is prepared by pipetting 25 μL ^3 H-arachidonate E. coli directly into a scintillation vial to which is added 1 mL tetrahydrofuran. 10 mL aquasol (scintillation cocktail) is added to all samples.

Experiment [5] deals with T2, human synovial fluid PLA2 (Homo sapiens, UniProt P14555).
T2 construct: Purified human synovial fluid; from tissue; host or cells: human synovial fluid
T2 sequence (P14555 21-144): T1 sequence (P14555 21-144)
Kind of experiment: in vitro isolated phospholipase A2 assay, human synovial fluid PLA2. The experiment is classed as biochemical. Particulars: for inhibition at 10 µM: + values given without explanation, read-out: % Inhibition HSF (human synovial fluid). As for the experimental part: as §3, §4, §5, §6, §7, §8, §9, §10, §11, §12, §13, §14, §15

Experiment [6] relates to purified PLA2, from the diamond back cotton mouth snake (A. piscivorus piscivorus). In words: in vivo PLA2 murine paw edema assay. The arrangement: species or system A. piscivorus piscivorus PLA2 in CD-1 mice.
Experiment [7] has as its system platelet-activating factor (PAF) biosynthesis in human polymorphonuclear neutrophils (PMN). Kind of experiment: platelet-activating factor biosynthesis in human polymorphonuclear neutrophils (in vitro phospholipase A2 assay). The experiment is classed as cell-based. Particulars: Homo sapiens, Polymorphonuclear neutrophil; in this assay (PAF or LTB4 readout not stated). How it is done:
The compounds of the invention are tested in an in vitro phospholipase A2 assay to determine the ability of the compounds to inhibit the biosynthesis of platelet-activating factor and LTB4 in purified human neutrophils.
A leukocyte enriched blood sample obtained from a healthy donor is procured by leukophoresis using a Haemonetics model 30+ blood processor (Biological Specialties, Inc., Lansdale, Penn.). The top "platelet-rich" layer is removed after a low speed spin (35 xg, 15 min, 25° C.) of the sample. The remaining cell suspension is centrifuged (400 xg, 10 min, 25° C.) to sediment the remaining cells. The supernatant is discarded and the cell pellet resuspended in 120 ml HBSS (without Ca^++ /Mg^++). The cell suspension is subjected to ficoll-hypaque sedimentation (Histopaque 1077, 400 xg, 30 min, 25° C.). Contaminating erythrocytes are lysed by hypotonic shock (1 min). The cells are then washed once with 40 ml of HBSS and resuspended with HBSS (without Ca^++ /Mg^++) to a concentration of 2.5×10^7 cells/ml for further use. Greater than 95% purity is obtained, as assessed by microscopic examination.
One ml of human PMN (2.5×10^7 cells/ml) is incubated with vehicle or drugs (10 μl) for 10 minutes at 30° C. After preincubation, an equal volume of HBSS (1 ml) containing 2.4 mM CaCl2, 6 μM calcium ionophore A23187 and 50 μCi [^3 H]-acetate is then incubated at 30° C. for 15 minutes. An aliquot (100 μl) of the reaction mixture is taken out and mixed with 900 μl of 15% ethanol. LTB4 is extracted by using solid phase extraction on reverse phase C18 columns to remove excess [^3 H]-acetate and PAD. The C18 column is prewashed once with 2 ml of ethanol and water. The sample aliquot is acidified with 0.1N HCl to pH 3 before applying to the column. The column is then washed with 2 ml of water followed by 2 ml of 15% ethanol and 2 ml of petroleum ether to remove excess labeled acetate. The sample is eluted with 2 ml of ethyl acetate. The collected samples are dried with nitrogen and resuspended in 0.5 ml RIA buffer. The quantity of LTB4 in the sample is obtained from RIA determination. For PAF determination, the reaction is terminated by addition of 5 ml chloroform:methanol:acetic acid (2:1:0.04, v/v/v). [^3 H]-PAF is obtained by Bligh and Dyer extraction. The chloroform phase is removed and dried under nitrogen. The residue is redissolved in 75 μl of chloroform:methanol (80:20, v/v). [^3 H]-PAF is resolved from other phospholipids by TLC on RPC18 plates with a solvent system of chloroform:methanol:water (2:3:1, v/v/v) and is quantitated using a Berthold automated TLC linear analyzer.
Data presented are the mean +/- s.d. of the values relative to control A23187 stimulated cells for each experiment assayed in triplicate. Percent inhibition when used is calculated as:
% Inhibition=100-[(x.div.Control)×100].
Dose response analysis is performed by non-linear regression analysis for curve fitting and IC50 determination.

Consider `COc1ccc2cc([C@H](C)C(=O)O)ccc2c1` [Naproxen, reference compound], for which the “ED50 at +10 min.” value in experiment [1] is recorded as 18 mg/kg.
As to `CCCCCC/C=C\CCCCCCCC(=O)C1=C(O)COC1=O` [Example 26, 4-Hydroxy-3-((Z)-1-oxo-9-hexadecenyl)-2(5H)-furanone], the inhibition at 10 µM in experiment [2] (read-out: % Inhibition 5-HETE) stood at 85%; in experiment [2] (read-out: % Inhibition LTB4) it was 82%; in experiment [3] (read-out: % Inhibition PGE2), 6%; in experiment [3] (read-out: % Inhibition TxB2) it was 1%; in experiment [4], 24.4%; in experiment [5], 1.7%. The results for the “% Change in Edema 30 min” value in experiment [6] (1 mg/kg i.p.) and in experiment [6] (10 mg/kg i.p.) were -62% and -67%, respectively. Moreover, the entries for the “% Change in Edema 60 min” value in experiment [6] (1 mg/kg i.p.) and in experiment [6] (10 mg/kg i.p.) were -38% and -43%, respectively.
`O=C(/C=C/c1ccccc1)C1=C(O)COC1=O` [Example 8, (E)-4-Hydroxy-3-(3-(phenyl)-1-oxo-2-propenyl)-2(5H)-furanone]: the inhibition at 10 µM in experiment [2] (read-out: % Inhibition LTB4) was 10%; in experiment [3] (read-out: % Inhibition TxB2), 1%; in experiment [4], 3%; in experiment [5], 77%. The IC50 in experiment [5] (Table IV, read-out: IC50 HSF (human synovial fluid)) was determined as 10.5 µM.
On to `CCc1cccc2c3c([nH]c12)C(CC)(CC(=O)O)OCC3` (stereo not drawn) [etodolac, reference compound], for which the figures for the inhibition at 0.5 µM in experiment [2] (at 0.5 μM) and in experiment [3] (at 0.5 μM) were 21% and 100%, respectively.
As to `C[C@@H]1C[C@H]2[C@@H]3CCC4=CC(=O)C=C[C@]4(C)[C@@]3(F)[C@@H](O)C[C@]2(C)[C@@]1(O)C(=O)CO` [Dexamethasone, reference compound], the “ED50 at +10 min.” value in experiment [6] (p.o. 3 hr, at +10 min) turned out to be 10 mg/kg.
Turning to Luffarrellolide [reference compound], the “ED50 at +10 min.” value in experiment [1] is “Not Active”.
Regarding `CN1CCC(=C2c3ccccc3C=Cc3ccccc32)CC1` [Cyproheptadine, reference compound], the “ED50 at +10 min.” value in experiment [1] is recorded as 3.1 mg/kg.
For the compound `CC(=O)O[C@H]1C[C@@H]2[C@@]3(C)CCCC(C)(C)[C@@H]3CC[C@@]2(C)[C@@H]2CC=C(C=O)[C@H](C=O)[C@@]12C` [scalaradial, reference compound], half-maximal inhibition in experiment [7] (IC50) required 1 µM.
Consider `COc1cccc2c1cc([N+](=O)[O-])c1c(C(=O)O)cc3c(c12)OCO3` [Aristolochic Acid, reference compound], for which the “ED50 at +10 min.” value in experiment [1] is on record as “Not Active”.
`CCC/C=C\CCCCCCCCC(=O)C1=C(O)COC1=O` [Example 23, 4-Hydroxy-3-((Z)-1-oxo-10-tetradecenyl)-2(5H)-furanone]: the inhibition at 10 µM is 93% in experiment [2] (read-out: % Inhibition 5-HETE); 83% in experiment [2] (read-out: % Inhibition LTB4); 1% in experiment [3] (read-out: % Inhibition PGE2); 8% in experiment [3] (read-out: % Inhibition TxB2); 52.7% in experiment [4]; 44% in experiment [5]. For the same compound, the “% Change in Edema 30 min” value is on record as -41% in experiment [6] (1 mg/kg i.p.) and -48% in experiment [6] (10 mg/kg i.p.). For the same compound, the “% Change in Edema 60 min” value in experiment [6] (1 mg/kg i.p.) is on record as -20%; in experiment [6] (10 mg/kg i.p.), -28%.
